Assay results reported in ChEMBL document CHEMBL4321793, “Can Cysteine Protease Cross-Class Inhibitors Achieve Selectivity?” (J Med Chem, 2019).
pIC50, pKi: −log10 of the molar value.

Key:
Procathepsin L [1] = target: T1, Procathepsin L (Homo sapiens, UniProt P07711); test: Inhibition of human cathepsin L
Cruzipain = Cruzipain (Trypanosoma cruzi, UniProt P25779); test: Reversible inhibition of Trypanosoma cruzi cruzipain
[2] = tested on: human cathepsin L versus Trypanosoma cruzi cruzipain; test: Selectivity ratio of IC50 for reversible inhibition of human cathepsin L to IC50 for reversible inhibition of Trypanosoma cruzi cruzipain; assay type: toxicity; conditions: read-out: Ratio IC50
[3] = tested on: human cathepsin B versus Trypanosoma cruzi cruzipain; test: Selectivity ratio of IC50 for reversible inhibition of human cathepsin B to IC50 for reversible inhibition of Trypanosoma cruzi cruzipain; assay type: toxicity; conditions: read-out: Ratio IC50
Procathepsin L [4] = target: T1, Procathepsin L; test: Reversible inhibition of human cathepsin L
Cathepsin B = Cathepsin B (Homo sapiens, UniProt P07858); test: Reversible inhibition of human cathepsin B
Rhodesain = Rhodesain (Trypanosoma brucei rhodesiense, UniProt Q95PM0); test: Inhibition of Trypanosoma brucei rhodesiense rhodesain
Sequence of Rhodesain (Q95PM0 whole entry): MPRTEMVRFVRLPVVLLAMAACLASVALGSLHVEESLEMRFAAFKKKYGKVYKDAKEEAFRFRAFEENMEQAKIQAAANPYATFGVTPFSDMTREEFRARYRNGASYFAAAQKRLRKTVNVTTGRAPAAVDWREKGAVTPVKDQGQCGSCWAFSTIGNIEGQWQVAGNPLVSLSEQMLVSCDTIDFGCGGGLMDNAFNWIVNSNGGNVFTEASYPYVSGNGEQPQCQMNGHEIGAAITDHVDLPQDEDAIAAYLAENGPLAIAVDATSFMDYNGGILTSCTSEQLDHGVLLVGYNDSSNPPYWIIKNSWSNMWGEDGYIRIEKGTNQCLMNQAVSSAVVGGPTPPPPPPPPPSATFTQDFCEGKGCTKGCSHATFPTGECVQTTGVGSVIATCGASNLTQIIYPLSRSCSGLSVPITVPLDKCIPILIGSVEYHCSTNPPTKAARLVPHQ

T1 sequence (P07711 whole entry): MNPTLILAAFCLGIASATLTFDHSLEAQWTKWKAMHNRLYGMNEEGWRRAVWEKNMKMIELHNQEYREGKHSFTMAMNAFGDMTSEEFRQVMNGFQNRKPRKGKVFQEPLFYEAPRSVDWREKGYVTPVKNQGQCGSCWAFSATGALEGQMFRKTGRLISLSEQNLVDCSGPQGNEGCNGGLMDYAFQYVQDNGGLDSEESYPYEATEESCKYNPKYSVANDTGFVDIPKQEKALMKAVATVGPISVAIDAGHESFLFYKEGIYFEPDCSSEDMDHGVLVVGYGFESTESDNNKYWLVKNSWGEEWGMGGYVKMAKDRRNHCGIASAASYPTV
Sequence of Cruzipain (P25779 whole entry): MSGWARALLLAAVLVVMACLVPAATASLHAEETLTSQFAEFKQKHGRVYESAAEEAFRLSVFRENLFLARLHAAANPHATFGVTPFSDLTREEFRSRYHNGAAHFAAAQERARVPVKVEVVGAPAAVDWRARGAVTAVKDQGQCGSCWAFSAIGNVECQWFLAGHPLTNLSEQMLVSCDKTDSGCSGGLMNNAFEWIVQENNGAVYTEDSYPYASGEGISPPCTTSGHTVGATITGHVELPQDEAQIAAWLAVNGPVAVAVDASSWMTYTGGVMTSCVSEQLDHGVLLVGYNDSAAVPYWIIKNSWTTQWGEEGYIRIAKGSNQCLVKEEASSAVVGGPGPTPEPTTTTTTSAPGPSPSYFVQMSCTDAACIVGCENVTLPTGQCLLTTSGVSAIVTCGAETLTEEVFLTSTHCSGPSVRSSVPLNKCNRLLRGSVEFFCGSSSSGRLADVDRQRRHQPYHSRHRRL

pIC50 (Cruzipain)	pIC50 (Procathepsin L [4])	pIC50 (Cathepsin B)	SMILES	pKi (Procathepsin L [1])	selectivity ratio [2]	selectivity ratio [3]	pKi (Rhodesain)
–	–	–	N#Cc1nc(N2CCOCC2)nc(N(Cc2ccc3c(c2)OCO3)C2CCCCC2)n1	7.48	–	–	–
9.10	7.33	5.95	CC(C)(F)C[C@H](N[C@@H](c1ccc(-c2ccc(N3CCNCC3)cc2)cc1)C(F)(F)F)C(=O)NCC#N	–	58	1390	–
–	–	–	CCC[C@H]1CC[C@H](N(Cc2ccc3c(c2)OCO3)c2nc(C#N)nc(N3CCOCC3)n2)CC1	6.16	–	–	8.70
